Results: ChEMBL document CHEMBL1201862, “PubChem BioAssay data set” (2004)
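Five concentrations, 48 hours, 96-well plates. GI50 = concentration required for 50% inhibition of growth.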 Calls of active or inactive are those of the source. Cut-off read from the data, not from the text of the source: active = GI50 up to about 1.1 µM and inactive = higher.

What was measured:
Assay in all cases: NCI anticancer screen, dose series, 48 h
A498 = tested on: A498
OVCAR-3 = tested on: OVCAR-3
HOP-92 = tested on: HOP-92
DLD-1 = tested on: DLD-1
DMS-273 = tested on: DMS-273
OVCAR-4 = tested on: OVCAR-4
U-251 = tested on: U-251
SF-268 = tested on: SF-268
UO-31 = tested on: UO-31
786-0 = tested on: 786-0
NCI-H522 = tested on: NCI-H522
Malme-3M = tested on: Malme-3M
OVCAR-5 = tested on: OVCAR-5
HOP-62 = tested on: HOP-62
M19-MEL = tested on: M19-MEL
HCT-116 = tested on: HCT-116
SK-MEL-5 = tested on: SK-MEL-5
CAKI-1 = tested on: CAKI-1
HT-29 = tested on: HT-29
UACC-62 = tested on: UACC-62
HL-60 = tested on: HL-60
M14 = tested on: M14
COLO 205 = tested on: COLO 205
SW-620 = tested on: SW-620
RPMI-8226 = tested on: RPMI-8226
SNB-19 = tested on: SNB-19
EKVX = tested on: EKVX
NCI-H460 = tested on: NCI-H460
KM-20L2 = tested on: KM-20L2
A549 = tested on: A549
IGROV-1 = tested on: IGROV-1
SNB-75 = tested on: SNB-75
HOP-18 = tested on: HOP-18
SK-MEL-2 = tested on: SK-MEL-2
UACC-257 = tested on: UACC-257
LXFL 529 = tested on: LXFL 529
OVCAR-8 = tested on: OVCAR-8
ACHN = tested on: ACHN
SF-539 = tested on: SF-539
TK-10 = tested on: TK-10
HCC 2998 = tested on: HCC 2998
CCRF-CEM = tested on: CCRF-CEM
SK-OV-3 = tested on: SK-OV-3
SN12C = tested on: SN12C
SNB-78 = tested on: SNB-78
NCI-H23 = tested on: NCI-H23
SK-MEL-28 = tested on: SK-MEL-28
LOX IMVI = tested on: LOX IMVI
RXF 393 = tested on: RXF 393
NCI-H226 = tested on: NCI-H226
K562 = tested on: K562
HCT-15 = tested on: HCT-15
SF-295 = tested on: SF-295
KM12 = tested on: KM12
MOLT-4 = tested on: MOLT-4
SR = tested on: SR
DMS-114 = tested on: DMS-114

`C[n+]1ccc2[nH]c3ccccc3c2c1` was tested, and the GI50 (A498) was 90.2 µM (inactive), the GI50 (OVCAR-3) was > 100 µM (inactive) and the GI50 (HOP-92) was > 100 µM (inactive). The GI50 (DLD-1) was > 100 µM (inactive), the GI50 (DMS-273) was > 100 µM (inactive) and the GI50 (OVCAR-4) was > 100 µM (inactive). For the same molecule, the GI50 (U-251) was > 100 µM (inactive), the GI50 (SF-268) was > 100 µM (inactive) and the GI50 (UO-31) was > 100 µM (inactive). The GI50 (786-0) was > 100 µM (inactive), the GI50 (NCI-H522) was > 100 µM (inactive) and the GI50 (Malme-3M) was 35.6 µM (inactive). The GI50 (OVCAR-5) was > 58.3 µM (inactive), the GI50 (HOP-62) was > 52.8 µM (inactive) and the GI50 (M19-MEL) was > 100 µM (inactive). For the same molecule, the GI50 (HCT-116) was 48.6 µM (inactive), the GI50 (SK-MEL-5) was > 78.3 µM (inactive) and the GI50 (CAKI-1) was > 100 µM (inactive). The GI50 (HT-29) was > 100 µM (inactive), the GI50 (UACC-62) was > 100 µM (inactive) and the GI50 (HL-60) was > 100 µM (inactive). The GI50 (M14) was > 100 µM (inactive), the GI50 (COLO 205) was > 100 µM (inactive) and the GI50 (SW-620) was > 86.3 µM (inactive). For the same molecule, the GI50 (RPMI-8226) was > 100 µM (inactive), the GI50 (SNB-19) was > 100 µM (inactive) and the GI50 (EKVX) was > 100 µM (inactive). The GI50 (NCI-H460) was > 77.4 µM (inactive), the GI50 (KM-20L2) was > 100 µM (inactive) and the GI50 (A549) was > 100 µM (inactive). For the same molecule, the GI50 (IGROV-1) was > 100 µM (inactive), the GI50 (SNB-75) was > 100 µM (inactive) and the GI50 (HOP-18) was > 45 µM (inactive). The GI50 (SK-MEL-2) was > 100 µM (inactive), the GI50 (UACC-257) was > 100 µM (inactive) and the GI50 (LXFL 529) was > 100 µM (inactive). The GI50 (OVCAR-8) was > 100 µM (inactive), the GI50 (ACHN) was > 100 µM (inactive) and the GI50 (SF-539) was > 100 µM (inactive). For the same molecule, the GI50 (TK-10) was > 100 µM (inactive), the GI50 (HCC 2998) was > 100 µM (inactive) and the GI50 (CCRF-CEM) was > 100 µM (inactive). The GI50 (SK-OV-3) was > 100 µM (inactive), the GI50 (SN12C) was > 100 µM (inactive) and the GI50 (SNB-78) was > 100 µM (inactive). The GI50 (NCI-H23) was > 100 µM (inactive), the GI50 (SK-MEL-28) was > 100 µM (inactive) and the GI50 (LOX IMVI) was > 100 µM (inactive). For the same molecule, the GI50 (RXF 393) was > 100 µM (inactive), the GI50 (NCI-H226) was 61 µM (inactive) and the GI50 (K562) was > 100 µM (inactive). The GI50 (HCT-15) was greater than 100 µM, the GI50 (SF-295) was > 100 µM (inactive) and the GI50 (KM12) was 77.1 µM (inactive). For the same molecule, the GI50 (MOLT-4) was 38.8 µM (inactive).

`Cc1ccc(S(=O)(=O)NCCCN(CCCNS(=O)(=O)c2ccc(C)cc2)S(=O)(=O)c2ccc(C)cc2)cc1` was tested, and the GI50 (OVCAR-3) was > 100 µM (inactive), the GI50 (DLD-1) was > 100 µM (inactive) and the GI50 (DMS-273) was > 100 µM (inactive). The GI50 (U-251) was > 100 µM (inactive), the GI50 (SF-268) was > 100 µM (inactive) and the GI50 (UO-31) was > 100 µM (inactive). The GI50 (786-0) was > 100 µM (inactive), the GI50 (NCI-H522) was > 100 µM (inactive) and the GI50 (Malme-3M) was > 100 µM (inactive). The GI50 (HOP-62) was > 100 µM (inactive), the GI50 (SR) was 69.7 µM (inactive) and the GI50 (M19-MEL) was > 100 µM (inactive). For the same molecule, the GI50 (HCT-116) was > 100 µM (inactive), the GI50 (DMS-114) was > 100 µM (inactive) and the GI50 (UACC-62) was > 100 µM (inactive). The GI50 (HL-60) was > 100 µM (inactive), the GI50 (M14) was > 100 µM (inactive) and the GI50 (COLO 205) was > 100 µM (inactive). The GI50 (SW-620) was > 100 µM (inactive), the GI50 (RPMI-8226) was > 100 µM (inactive) and the GI50 (SNB-19) was > 100 µM (inactive). For the same molecule, the GI50 (NCI-H460) was > 100 µM (inactive), the GI50 (KM-20L2) was > 100 µM (inactive) and the GI50 (A549) was > 100 µM (inactive). For the same molecule, the GI50 (IGROV-1) was > 100 µM (inactive), the GI50 (SNB-75) was > 100 µM (inactive) and the GI50 (UACC-257) was > 100 µM (inactive). For the same molecule, the GI50 (LXFL 529) was > 100 µM (inactive), the GI50 (OVCAR-8) was > 100 µM (inactive) and the GI50 (ACHN) was > 100 µM (inactive). For the same molecule, the GI50 (SF-539) was > 100 µM (inactive), the GI50 (TK-10) was > 100 µM (inactive) and the GI50 (HCC 2998) was > 100 µM (inactive). For the same molecule, the GI50 (CCRF-CEM) was > 100 µM (inactive), the GI50 (SK-OV-3) was > 100 µM (inactive) and the GI50 (SN12C) was > 100 µM (inactive). For the same molecule, the GI50 (SNB-78) was > 100 µM (inactive), the GI50 (NCI-H23) was > 100 µM (inactive) and the GI50 (SK-MEL-28) was > 100 µM (inactive). For the same molecule, the GI50 (LOX IMVI) was > 100 µM (inactive), the GI50 (RXF 393) was > 100 µM (inactive) and the GI50 (NCI-H226) was > 100 µM (inactive). The GI50 (K562) was > 100 µM (inactive), the GI50 (HCT-15) was greater than 100 µM and the GI50 (SF-295) was > 100 µM (inactive). For the same molecule, the GI50 (KM12) was 89.1 µM (inactive) and the GI50 (MOLT-4) was > 100 µM (inactive).
